Measured values: ChEMBL document CHEMBL1201862, “PubChem BioAssay data set” (2004)
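96-well plates; 48 h exposure; 5 concentrations. Endpoints by linear interpolation between flanking doses. Not reached: highest tested concentration assigned. GI50 marks 50% less growth.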 Calls of active or inactive are those of the source. Cut-off read from the data, not from the text of the source: active = GI50 up to about 1.1 µM and inactive = higher.

Columns and labels:
Assay in all cases: NCI-60 cell line screen, 48 h
TK-10 = system: TK-10
SK-MEL-2 = system: SK-MEL-2
A498 = system: A498
UACC-62 = system: UACC-62
SF-539 = system: SF-539
NCI-H460 = system: NCI-H460
MOLT-4 = system: MOLT-4
Malme-3M = system: Malme-3M
SW-620 = system: SW-620
UACC-257 = system: UACC-257
OVCAR-3 = system: OVCAR-3
SK-MEL-28 = system: SK-MEL-28
SNB-75 = system: SNB-75
SN12C = system: SN12C
IGROV-1 = system: IGROV-1
SF-295 = system: SF-295
MDA-MB-231 = system: MDA-MB-231
PC-3 = system: PC-3
DU-145 = system: DU-145
MDA-N = system: MDA-N

Measured: GI50

CC(=O)O[C@H]1[C@H](O[C@H]2CC[C@]34C[C@]35CC[C@]3(C)[C@@H]([C@@]6(C)CC[C@@H](C(C)(C)O)O6)[C@@H](O)C[C@@]3(C)[C@@H]5C[C@H](O[C@@H]3O[C@H](CO)[C@@H](O)[C@H](O)[C@H]3O)[C@H]4C2(C)C)OC[C@@H](O)[C@@H]1O
inactive: TK-10 > 100 µM | SK-MEL-2 > 100 µM | A498 > 100 µM | UACC-62 > 100 µM | SF-539 40.4 µM | NCI-H460 71 µM | MOLT-4 > 100 µM | Malme-3M > 100 µM | SW-620 25.4 µM | UACC-257 > 100 µM | OVCAR-3 > 100 µM | SK-MEL-28 > 100 µM | SNB-75 > 100 µM | SN12C > 100 µM | IGROV-1 > 100 µM | SF-295 > 100 µM

CC(C)(C)c1cc(C(=O)/C=C/c2cc[nH]n2)cc(C(C)(C)C)c1O
inactive: TK-10 1.54 µM | SK-MEL-2 1.78 µM | A498 2.17 µM | UACC-62 3.26 µM | SF-539 3.85 µM | NCI-H460 3.72 µM | MOLT-4 2.61 µM | Malme-3M 7.29 µM | MDA-MB-231 1.91 µM | SW-620 2.33 µM | UACC-257 3.24 µM | OVCAR-3 2.75 µM | SK-MEL-28 6.11 µM | PC-3 2.08 µM | SNB-75 4.61 µM | DU-145 2.56 µM | SN12C 1.85 µM | IGROV-1 1.93 µM | SF-295 13.7 µM

O=C1c2ccccc2C(=O)N1CCn1ccc(NC(c2ccccc2)(c2ccccc2)c2ccccc2)nc1=O
inactive: TK-10 26.9 µM | SK-MEL-2 20.5 µM | A498 18.2 µM | UACC-62 12.6 µM | SF-539 16 µM | NCI-H460 23.6 µM | MOLT-4 17.5 µM | Malme-3M 20.3 µM | SW-620 29.3 µM | UACC-257 18 µM | OVCAR-3 24.3 µM | SK-MEL-28 18.2 µM | SNB-75 21.8 µM | SN12C 26.2 µM | IGROV-1 22.2 µM | SF-295 15.1 µM

O=C1CCC2(c3ccccc3)Nc3ncccc3N12 (centres undefined)
inactive: TK-10 > 100 µM | SK-MEL-2 > 100 µM | A498 > 100 µM | UACC-62 > 100 µM | SF-539 > 100 µM | NCI-H460 > 100 µM | MOLT-4 > 100 µM | Malme-3M > 100 µM | SW-620 > 100 µM | UACC-257 > 100 µM | OVCAR-3 > 100 µM | SK-MEL-28 > 100 µM | SNB-75 61.9 µM | SN12C > 100 µM | IGROV-1 > 100 µM | SF-295 > 100 µM

O=C(/C=C/c1cccc([N+](=O)[O-])c1)N1CCN(CCOC(c2ccccc2)c2ccccc2)CC1
inactive: TK-10 22.7 µM | A498 50.7 µM | UACC-62 33.8 µM | NCI-H460 25.9 µM | MOLT-4 12.4 µM | Malme-3M 31.8 µM | SW-620 38.9 µM | UACC-257 32.4 µM | OVCAR-3 66.1 µM | SK-MEL-28 25.9 µM | SNB-75 54.2 µM | DU-145 47.3 µM | SN12C 57.5 µM | IGROV-1 42.6 µM | SF-295 56.8 µM | MDA-N 37.3 µM

COC(=O)C(Cc1c[nH]c2ccccc12)NC(=O)C(Cc1c[nH]cn1)NC(=O)C1CCC(=O)N1C(=O)OCc1ccccc1 (centres undefined)
inactive: TK-10 > 100 µM | SK-MEL-2 > 100 µM | A498 7.35 µM | UACC-62 > 100 µM | NCI-H460 > 100 µM | MOLT-4 > 100 µM | Malme-3M > 100 µM | SW-620 > 100 µM | UACC-257 > 100 µM | SK-MEL-28 > 100 µM | PC-3 > 100 µM | SNB-75 > 100 µM | IGROV-1 > 100 µM | MDA-N > 100 µM

O=C(O)CCC(NC(=O)c1ccccc1)C(=O)O (centres undefined)
inactive: TK-10 > 100 µM | SK-MEL-2 > 100 µM | A498 > 100 µM | UACC-62 > 100 µM | SF-539 > 100 µM | NCI-H460 > 100 µM | MOLT-4 > 100 µM | Malme-3M > 100 µM | SW-620 42.3 µM | UACC-257 > 100 µM | OVCAR-3 > 100 µM | SK-MEL-28 > 100 µM | SNB-75 > 100 µM | SN12C > 100 µM | IGROV-1 > 100 µM | SF-295 > 100 µM

O=C(c1ccccc1)c1nc2ccc(Cl)cc2cc1C(Br)Br
inactive: A498 1.79 µM | Malme-3M 1.6 µM
active: TK-10 0.687 µM | SK-MEL-2 0.45 µM | UACC-62 0.569 µM | SF-539 0.246 µM | NCI-H460 0.281 µM | MOLT-4 0.678 µM | MDA-MB-231 0.0685 µM | SW-620 0.185 µM | UACC-257 0.525 µM | OVCAR-3 0.326 µM | SK-MEL-28 0.261 µM | PC-3 0.225 µM | SNB-75 0.278 µM | DU-145 1.03 µM | SN12C 0.252 µM | IGROV-1 0.735 µM | SF-295 0.261 µM

O=[N+]([O-])c1ccc(/C=C(/c2ccc([N+](=O)[O-])o2)S(=O)(=O)c2ccccc2)o1
inactive: TK-10 4.1 µM | SK-MEL-2 17.4 µM | UACC-62 6.17 µM | SF-539 18.1 µM | NCI-H460 21.2 µM | Malme-3M 2.45 µM | MDA-MB-231 3.19 µM | SW-620 2.26 µM | UACC-257 1.84 µM | OVCAR-3 6.14 µM | SK-MEL-28 15.6 µM | PC-3 16.4 µM | SNB-75 19 µM | DU-145 14.8 µM | IGROV-1 16.6 µM | SF-295 18.6 µM

COc1cc(C[S+]2CCCC2)c(SC)cc1C[S+]1CCCC1
inactive: TK-10 > 100 µM | SK-MEL-2 > 100 µM | A498 > 100 µM | UACC-62 > 100 µM | SF-539 > 100 µM | NCI-H460 > 100 µM | MOLT-4 > 100 µM | Malme-3M > 100 µM | SW-620 > 100 µM | UACC-257 > 100 µM | OVCAR-3 > 100 µM | SK-MEL-28 > 100 µM | SNB-75 47.4 µM | SN12C > 100 µM | IGROV-1 > 100 µM | SF-295 > 100 µM

N#CC(C#N)=C/C=C(\Sc1c(Cl)c(Cl)nc(Cl)c1Cl)c1ccc(Cl)cc1
inactive: TK-10 21.2 µM | SK-MEL-2 32.4 µM | UACC-62 14.3 µM | SF-539 19.4 µM | NCI-H460 26.4 µM | MOLT-4 4.56 µM | Malme-3M 23 µM | MDA-MB-231 21.6 µM | SW-620 5.77 µM | UACC-257 14.8 µM | OVCAR-3 11.6 µM | SK-MEL-28 19.2 µM | PC-3 30 µM | SNB-75 20.1 µM | DU-145 21.1 µM | SN12C 20.8 µM | IGROV-1 18.7 µM | SF-295 19 µM

O=C(c1ccccc1)c1c2ccccn2c2cccc[n+]12
inactive: TK-10 > 100 µM | SK-MEL-2 > 100 µM | A498 71.8 µM | UACC-62 > 100 µM | SF-539 > 100 µM | NCI-H460 > 100 µM | MOLT-4 > 100 µM | Malme-3M > 100 µM | MDA-MB-231 > 100 µM | SW-620 > 100 µM | UACC-257 > 100 µM | OVCAR-3 > 100 µM | SK-MEL-28 > 100 µM | PC-3 > 100 µM | SNB-75 > 100 µM | DU-145 > 100 µM | IGROV-1 > 100 µM | SF-295 > 100 µM

CCN(CC)CCCN1CCc2c([nH]c3ccccc23)C1c1cccnc1 (centres undefined)
inactive: TK-10 > 100 µM | SK-MEL-2 > 100 µM | A498 > 100 µM | UACC-62 > 100 µM | SF-539 > 100 µM | NCI-H460 > 100 µM | MOLT-4 > 100 µM | Malme-3M 74.1 µM | SW-620 > 100 µM | UACC-257 42.8 µM | OVCAR-3 88.3 µM | SK-MEL-28 38.4 µM | SNB-75 > 100 µM | SN12C > 100 µM | IGROV-1 > 100 µM | SF-295 > 100 µM

NNc1nncn1N
inactive: TK-10 > 100 µM | SK-MEL-2 > 100 µM | A498 > 100 µM | UACC-62 > 100 µM | SF-539 > 53.8 µM | NCI-H460 > 100 µM | MOLT-4 > 62.4 µM | Malme-3M > 55 µM | MDA-MB-231 > 100 µM | SW-620 > 57.1 µM | UACC-257 > 100 µM | OVCAR-3 > 49.7 µM | SK-MEL-28 > 100 µM | PC-3 > 100 µM | SNB-75 > 100 µM | DU-145 > 55.2 µM | SN12C > 73.1 µM | IGROV-1 > 100 µM | SF-295 > 100 µM

COCN1C(=O)[C@@H]2CCCN2C(=O)c2ccc([N+](=O)[O-])cc21
inactive: TK-10 > 100 µM | SK-MEL-2 > 100 µM | A498 > 100 µM | UACC-62 > 100 µM | SF-539 > 100 µM | NCI-H460 > 100 µM | MOLT-4 > 100 µM | MDA-MB-231 > 100 µM | SW-620 > 100 µM | UACC-257 > 100 µM | OVCAR-3 > 100 µM | SK-MEL-28 > 100 µM | PC-3 > 100 µM | SNB-75 > 100 µM | DU-145 > 100 µM | SN12C > 100 µM | IGROV-1 > 100 µM | SF-295 > 100 µM

N#Cc1c([N+](=O)[O-])cc(C(F)(F)F)cc1[N+](=O)[O-]
inactive: TK-10 13.7 µM | SK-MEL-2 18.5 µM | A498 18.2 µM | UACC-62 5.04 µM | SF-539 5.94 µM | NCI-H460 19.7 µM | MOLT-4 2.08 µM | Malme-3M 8.2 µM | SW-620 3.26 µM | UACC-257 6.7 µM | OVCAR-3 16.7 µM | SK-MEL-28 8.73 µM | SNB-75 6.22 µM | SN12C 14.1 µM | IGROV-1 5.65 µM | SF-295 4.74 µM
